Laboratory results taken from patent US20250000932A1, “DIAGNOSIS AND TREATMENT OF VA[…]” (University Of Maryland, Baltimore, priority 2023, published 2025).

Test system: patients with catecholamine-resistant vasodilatory shock
Experiment: ATHOS-3: safety (adverse events, serious adverse events)
Type: in vivo, human
Details: patients with elevated renin concentrations at baseline
Experimental: The use of Angiotensin II for the Treatment of High-Output Shock 3 (ATHOS-3) study has been described by Khanna et al. and Chawla et al. In brief, adults with vasodilatory shock despite volume resuscitation with 2:25 mL/kg and high-dose vasopressors were randomly assigned 1:1 to receive synthetic human angiotensin II (La Jolla Pharmaceutical Company™) or saline placebo plus standard vasopressors. Randomization was stratified according to MAP at screening and Acute Physiology and Chronic Health Evaluation II (APACHE II) score.
The study drug infusion started at 20 ng/kg/min and was adjusted during the first 3 hours to increase the MAP to 2:75 mm Hg while keeping other vasopressors constant. Thereafter, the study drug and other vasopressors were adjusted at the discretion of the treating ICU team to maintain a MAP between 65 and 75 mm Hg. At 48 hours, the infusion was discontinued according to a protocol-specified tapering process. However, continuation was allowed for up to 7 days at the discretion of the ICU team.
Safety was evaluated by assessment of treatment-emergent adverse events, serious adverse events, and adverse event-related drug discontinuations.

## CC[C@H](C)[C@H](NC(=O)[C@H](Cc1ccc(O)cc1)NC(=O)[C@@H](NC(=O)[C@H](CCCNC(=N)N)NC(=O)[C@@H](N)CC(=O)O)C(C)C)C(=O)N[C@@H](Cc1cnc[nH]1)C(=O)N1CCC[C@H]1C(=O)N[C@@H](Cc1ccccc1)C(=O)O [Angiotensin II, angiotensin II]
  adverse events or serious adverse events vs placebo: no significant difference
